Laboratory results published in ChEMBL document CHEMBL3046579, “Synthesis, anticancer and MRP1 inhibitory activities of 4-alkyl/aryl-3,5-bis(carboethoxy/carbomethoxy)-1,4-dihydro-2,6-dimethylpyridines” (Med Chem Res, 2013).

Key:
[1] = Cytotoxicity against Homo sapiens (human) MDA-MB cells assessed as cell viability after 48 hr by MTT assay; type: functional, cell-based
HT-29 = assay: Cytotoxicity against Homo sapiens (human) HT-29 cells assessed as cell viability after 48 hr by MTT assay; type: functional, cell-based
[2] = target: T1, Multidrug resistance-associated protein 1 (Homo sapiens, UniProt P33527); assay: Inhibition of Homo sapiens (human) MRP1 expressed in Sf9 cell membranes assessed as decrease in N-ethyl-maleimide-glutathione-induced inorganic phosphate production at 1 to 1000 uM by spectrophotometric analysis in presence of glutathione
T1 sequence (P33527 whole entry): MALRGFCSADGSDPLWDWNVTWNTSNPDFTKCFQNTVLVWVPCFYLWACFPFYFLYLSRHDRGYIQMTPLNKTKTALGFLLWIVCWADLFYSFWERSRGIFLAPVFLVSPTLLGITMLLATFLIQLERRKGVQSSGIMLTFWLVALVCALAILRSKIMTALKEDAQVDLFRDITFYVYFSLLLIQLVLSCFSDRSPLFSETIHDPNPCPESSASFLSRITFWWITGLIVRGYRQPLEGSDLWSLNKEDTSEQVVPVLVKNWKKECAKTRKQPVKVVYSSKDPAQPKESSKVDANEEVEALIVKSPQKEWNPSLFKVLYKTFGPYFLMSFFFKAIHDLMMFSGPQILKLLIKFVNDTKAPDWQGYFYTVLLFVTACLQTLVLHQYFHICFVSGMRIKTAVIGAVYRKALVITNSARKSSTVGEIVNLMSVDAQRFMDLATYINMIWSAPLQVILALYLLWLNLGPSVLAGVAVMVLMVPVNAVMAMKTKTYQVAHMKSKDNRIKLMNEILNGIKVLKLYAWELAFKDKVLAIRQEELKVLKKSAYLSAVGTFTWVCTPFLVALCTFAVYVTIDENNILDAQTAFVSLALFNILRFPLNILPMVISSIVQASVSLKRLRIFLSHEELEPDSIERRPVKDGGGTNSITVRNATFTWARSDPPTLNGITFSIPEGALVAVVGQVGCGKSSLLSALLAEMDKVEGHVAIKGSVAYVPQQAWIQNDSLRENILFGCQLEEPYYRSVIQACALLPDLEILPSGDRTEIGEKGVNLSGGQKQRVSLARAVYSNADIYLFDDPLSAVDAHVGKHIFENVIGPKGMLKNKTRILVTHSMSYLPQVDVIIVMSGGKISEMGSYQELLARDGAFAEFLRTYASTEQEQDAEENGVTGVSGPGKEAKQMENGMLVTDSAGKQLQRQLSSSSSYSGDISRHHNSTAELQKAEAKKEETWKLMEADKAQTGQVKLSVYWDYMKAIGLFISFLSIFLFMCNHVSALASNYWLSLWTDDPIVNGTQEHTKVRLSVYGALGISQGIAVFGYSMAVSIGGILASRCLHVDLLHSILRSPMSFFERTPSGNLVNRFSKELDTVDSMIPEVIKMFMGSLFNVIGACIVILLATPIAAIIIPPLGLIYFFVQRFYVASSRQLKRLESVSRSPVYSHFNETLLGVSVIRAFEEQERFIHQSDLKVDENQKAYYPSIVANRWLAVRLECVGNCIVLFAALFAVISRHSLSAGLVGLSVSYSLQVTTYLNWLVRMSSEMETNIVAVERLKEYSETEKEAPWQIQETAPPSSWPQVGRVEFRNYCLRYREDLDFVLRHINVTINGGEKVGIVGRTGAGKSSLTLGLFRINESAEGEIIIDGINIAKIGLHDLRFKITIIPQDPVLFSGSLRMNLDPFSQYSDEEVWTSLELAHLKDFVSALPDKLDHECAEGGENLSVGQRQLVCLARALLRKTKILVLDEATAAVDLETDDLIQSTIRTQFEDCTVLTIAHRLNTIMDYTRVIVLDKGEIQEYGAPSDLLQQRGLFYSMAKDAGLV

MRP1 [3] = target: T2, MRP1 (Homo sapiens, UniProt P33527); assay: Inhibition of Homo sapiens (human) MRP1 expressed in Sf9 cell membranes assessed as decrease in N-ethyl-maleimide-glutathione-induced inorganic phosphate production at 50 uM by spectrophotometric analysis in presence of glutathione relative to control; settings: Sf9 cell membranes expressing human MRP1, probe N-ethyl-maleimide-glutathione, read-out: Imax
T2 sequence (P33527 whole entry): as above

[4] = target: T1, Multidrug resistance-associated protein 1; assay: Inhibition of Homo sapiens (human) MRP1 expressed in Sf9 cell membranes assessed as decrease in N-ethyl-maleimide-glutathione-induced inorganic phosphate production by spectrophotometric analysis in presence of glutathione
MRP1 [5] = target: T2, MRP1; assay: Inhibition of Homo sapiens (human) MRP1 expressed in Sf9 cell membranes assessed as decrease in N-ethyl-maleimide-glutathione-induced inorganic phosphate production at 10 uM by spectrophotometric analysis in presence of glutathione relative to control; settings: Sf9 cell membranes expressing human MRP1, probe N-ethyl-maleimide-glutathione
HSC-2 = assay: Cytotoxicity against Homo sapiens (human) HSC2 cells; type: functional, cell-based
[6] = Cytotoxicity against Homo sapiens (human) HSG cells; type: functional, cell-based
[7] = Homo sapiens, MDA-MB, 48 h, read-out: IC50
[8] = Homo sapiens, HT-29, 48 h, read-out: IC50

Compound: CCCC1C(C(=O)OCC)=C(C)NC(C)=C1C(=O)OCC
- IC50 [1, 7]: 500 µM
- IC50 (HT-29; ht-29): Not Active
- inhibition (INH) [2]: Not Active

Compound: CCOC(=O)C1=C(C)NC(C)=C(C(=O)OCC)C1c1ccccc1
- IC50 ([1]; mda-mb): Not Active
- IC50 (HT-29; ht-29): Not Active

Compound: CCOC(=O)C1=C(C)NC(C)=C(C(=O)OCC)C1c1cccc([N+](=O)[O-])c1
- IC50 [1, 7]: 244 µM
- IC50 (HT-29; [8]): 500 µM
- inhibition (INH) [2]: Not Active

Compound: CCOC(=O)C1=C(C)NC(C)=C(C(=O)OCC)C1c1ccc(Cl)cc1
- inhibition at 50 µM (MRP1 [3]): 65%
- IC50 [4]: 16 µM
- inhibition at 10 µM (MRP1 [5]): 47%
- IC50 [1, 7]: 268 µM
- IC50 (HT-29; [8]): 262 µM

Compound: CCOC(=O)C1=C(C)NC(C)=C(C(=O)OCC)C1c1ccc(C)cc1
- IC50 [1, 7]: 500 µM
- IC50 (HT-29; [8]): 310 µM

Compound: COC(=O)C1=C(C)NC(C)=C(C(=O)OC)C1c1ccc(Cl)cc1
- IC50 [1, 7]: 460 µM
- IC50 (HT-29; ht-29): Not Active
- inhibition (INH) [2]: Not Active

Compound: COC(=O)C1=C(C)NC(C)=C(C(=O)OC)C1c1ccc(OC)cc1
- IC50 ([1]; mda-mb): Not Active
- IC50 (HT-29; [8]): 452 µM

Compound: CCOC(=O)C1=C(C)NC(C)=C(C(=O)OCC)C1c1ccc(OC)cc1
- IC50 [1, 7]: 331 µM
- IC50 (HT-29; ht-29): Not Active
- inhibition (INH) [2]: Not Active

Compound: COC(=O)C1=C(C)NC(C)=C(C(=O)OC)C1c1ccccc1
- IC50 ([1]; mda-mb): Not Active
- IC50 (HT-29; ht-29): Not Active

Compound: CCCCC1C(C(=O)OCC)=C(C)NC(C)=C1C(=O)OCC
- IC50 [1, 7]: 350 µM
- IC50 (HT-29; ht-29): Not Active
- inhibition (INH) [2]: Not Active

Compound: CCCC1C(C(=O)OC)=C(C)NC(C)=C1C(=O)OC
- IC50 ([1]; mda-mb): Not Active
- IC50 (HT-29; ht-29): Not Active

Compound: CCCCC1C(C(=O)OC)=C(C)NC(C)=C1C(=O)OC
- IC50 ([1]; mda-mb): Not Active
- IC50 (HT-29; [8]): 500 µM

Compound: COC(=O)C1=C(C)NC(C)=C(C(=O)OC)C1c1ccc(C)cc1
- IC50 [1, 7]: 500 µM
- IC50 (HT-29; ht-29): Not Active
- inhibition (INH) [2]: Not Active

Compound: CC1=C(C(=O)c2ccccc2)C(c2ccccc2C(F)(F)F)C(C(=O)c2ccccc2)=C(C)N1
- IC50 (HSC-2): 8.7 µM
- IC50 [6]: 8.7 µM

Compound: CC1=C(C(=O)c2ccccc2)C(c2ccccc2Cl)C(C(=O)c2ccccc2)=C(C)N1
- IC50 (HSC-2): 7 µM
- IC50 [6]: 28 µM
